From publication PMC10824666 (Nature Cancer, 2023)
Read-outs that look alike come from different tables or passages of the source.

Columns and labels:
Test in all cases: biochemical
Design in all cases: Eurofins DiscoverX kinase panel, competitive binding assay at 1 uM, percent of DMSO control
Conditions in all cases: competitive binding, percent of DMSO control
PI3K alpha = target: T1, PI3K alpha (Homo sapiens, UniProt P42336)
T1 construct: gene PIK3CA
Method: (§1) Extended Data Fig. 3 In vitro characterization of potent and selective KIF18A inhibitors. a, KIF18A compounds (1 µM) were assessed across a panel of kinases (n = 96) by a competitive binding assay. Graph presented as percentage of control (POC); dashed line indicates POC value of 30 (n = 1 experiment). b, Tubulin polymerization analysis. Profile of KIF18A compounds (10 µM) relative to DMSO, paclitaxel (5 µM, tubulin stabilizer), or nocodazole (5 µM, tubulin destabilizer). Graphs presented as tubulin fluorescence signal at 440 nm expressed as arbitrary units (a.u.) versus time (min) with area-under-the-curve (AUC) values (n = 1 or 3 independent experiments). c, Mitotic spindle image analysis. […] Representative images were captured with x40 objective (scale bar = 10 µm) (n = 1 experiment). d-f, KIF18A compound effects on HeLa cells. d, Cells were treated for 96 h with DMSO or KIF18A compounds at the indicated concentrations. KIF18A compound concentration-response profiles presented as count relative to the percentage of DMSO control (POC) with count EC50 values (n = 2 independent experiments in duplicate). e, KIF18A protein localization in cells after treatment for 6 hours with DMSO or AM-1882 (0.05 µM). Cells stained to detect DNA, KIF18A, and centrin-3. Representative images of mitotic cells (n = 3 per group) were captured with x60 objective (scale bar = 5 µm) and graphs of line scan measurements were obtained for DNA, KIF18A, and centrin-3 channels expressed as fluorescence intensity (a.u.) versus distance (µm) (n = 1 experiment). f, Mitotic cell fate imaging analysis. HeLa Kyoto cells co-expressing α-tubulin-EGFP and H2B-mCherry proteins released from a G1S block in media containing DMSO or AM-1882 (0.2 µM). Analysis was performed on cells entering the first mitosis (n = 40 cells per group). Graph presented as time in mitosis (h) versus mitotic cell fate, either complete cell division (CCD) or death in mitosis (DiM). Classified cells exiting mitosis by the number of daughter cells and cell death in […] We screened a small-molecule library of diverse compounds for selective inhibitors of KIF18A MT-ATPase motor activity. Two compound hits were discovered that phenocopied the effects of KIF18A KD in cells; these hits are structurally distinct from the KIF18A inhibitor BTB-1 (refs. [27],[28]). […] However, the potency of the KIF18A inhibitors was unaffected by varying ATP and MT concentrations (Extended Data Fig. 2d). This supports our proposed model in which KIF18A inhibitors occupy an allosteric pocket formed by motor helices α4 and α6 close to the motor MT-binding surface. To screen for potential off-target interactions with essential mitotic kinases, three of the KIF18A compounds were profiled against a large panel of kinases. […] We next investigated whether our KIF18A inhibitors affected tubulin polymerization in vitro in the absence of the KIF18A motor. All four KIF18A compounds had tubulin-polymerization profiles similar to that of the DMSO control and distinct from those of the paclitaxel (MT stabilizer) and nocodazole (MT destabilizer) co

Tyk-2 = target: T2, Tyk-2 (Homo sapiens, UniProt P29597)
T2 construct: gene TYK2
Method: as §1

GSK3B = GSK3B (Homo sapiens, UniProt P49841)
Chain of GSK3B (P49841 whole entry): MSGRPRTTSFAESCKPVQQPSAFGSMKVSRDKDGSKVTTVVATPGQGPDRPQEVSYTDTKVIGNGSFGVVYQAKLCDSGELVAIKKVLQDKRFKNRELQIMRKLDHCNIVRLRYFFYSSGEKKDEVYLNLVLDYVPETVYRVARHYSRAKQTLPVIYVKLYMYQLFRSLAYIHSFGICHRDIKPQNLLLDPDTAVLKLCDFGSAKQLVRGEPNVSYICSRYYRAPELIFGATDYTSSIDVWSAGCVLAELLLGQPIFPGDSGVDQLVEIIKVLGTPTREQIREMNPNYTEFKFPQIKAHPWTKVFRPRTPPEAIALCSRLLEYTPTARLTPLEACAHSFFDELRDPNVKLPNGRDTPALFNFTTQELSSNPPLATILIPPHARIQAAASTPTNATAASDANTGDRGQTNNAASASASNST
Method: as §1

MAP3K1 = MAP3K1 (Homo sapiens, UniProt Q13233)
Chain of MAP3K1 (Q13233 whole entry): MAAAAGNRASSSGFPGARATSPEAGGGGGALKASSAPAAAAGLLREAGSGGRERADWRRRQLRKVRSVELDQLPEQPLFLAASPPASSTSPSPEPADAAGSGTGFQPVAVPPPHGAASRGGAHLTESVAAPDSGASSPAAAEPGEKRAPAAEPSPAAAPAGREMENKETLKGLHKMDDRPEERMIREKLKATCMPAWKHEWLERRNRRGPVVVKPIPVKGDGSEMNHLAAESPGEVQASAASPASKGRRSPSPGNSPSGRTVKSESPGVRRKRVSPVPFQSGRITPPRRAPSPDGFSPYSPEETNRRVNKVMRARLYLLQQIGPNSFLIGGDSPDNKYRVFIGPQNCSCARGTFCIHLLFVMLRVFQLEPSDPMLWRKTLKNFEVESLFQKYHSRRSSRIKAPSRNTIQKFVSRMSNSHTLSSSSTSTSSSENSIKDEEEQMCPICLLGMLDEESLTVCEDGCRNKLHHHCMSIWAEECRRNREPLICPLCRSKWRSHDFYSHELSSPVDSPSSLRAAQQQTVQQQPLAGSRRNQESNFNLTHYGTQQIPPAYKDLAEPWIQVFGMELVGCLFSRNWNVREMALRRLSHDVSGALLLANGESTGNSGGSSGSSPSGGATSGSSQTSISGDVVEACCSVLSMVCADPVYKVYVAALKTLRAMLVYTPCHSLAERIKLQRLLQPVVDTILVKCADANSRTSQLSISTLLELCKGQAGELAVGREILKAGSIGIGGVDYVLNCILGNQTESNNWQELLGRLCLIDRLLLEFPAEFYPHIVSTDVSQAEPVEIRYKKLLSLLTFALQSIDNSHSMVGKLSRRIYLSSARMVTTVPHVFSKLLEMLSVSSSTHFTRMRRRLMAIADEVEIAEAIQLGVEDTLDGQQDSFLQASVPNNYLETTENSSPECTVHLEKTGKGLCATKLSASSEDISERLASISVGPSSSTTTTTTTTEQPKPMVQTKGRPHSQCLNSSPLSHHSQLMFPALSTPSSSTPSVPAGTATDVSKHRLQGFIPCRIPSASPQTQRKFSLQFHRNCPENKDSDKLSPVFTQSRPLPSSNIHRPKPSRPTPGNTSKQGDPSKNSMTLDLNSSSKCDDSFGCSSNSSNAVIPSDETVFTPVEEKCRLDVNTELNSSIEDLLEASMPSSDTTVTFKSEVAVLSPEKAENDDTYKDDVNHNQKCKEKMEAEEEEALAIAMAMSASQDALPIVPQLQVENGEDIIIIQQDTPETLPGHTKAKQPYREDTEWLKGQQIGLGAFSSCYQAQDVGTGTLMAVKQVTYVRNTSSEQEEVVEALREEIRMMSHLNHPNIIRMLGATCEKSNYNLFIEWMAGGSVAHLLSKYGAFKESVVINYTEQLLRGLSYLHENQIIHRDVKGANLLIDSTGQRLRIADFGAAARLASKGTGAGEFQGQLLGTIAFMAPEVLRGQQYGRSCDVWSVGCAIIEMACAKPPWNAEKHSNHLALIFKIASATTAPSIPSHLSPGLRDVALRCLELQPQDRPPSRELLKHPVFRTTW
Method: as §1

PKB α = target: T3, PKB α (Homo sapiens, UniProt P31749)
T3 construct: gene AKT1
T3 sequence (P31749 whole entry): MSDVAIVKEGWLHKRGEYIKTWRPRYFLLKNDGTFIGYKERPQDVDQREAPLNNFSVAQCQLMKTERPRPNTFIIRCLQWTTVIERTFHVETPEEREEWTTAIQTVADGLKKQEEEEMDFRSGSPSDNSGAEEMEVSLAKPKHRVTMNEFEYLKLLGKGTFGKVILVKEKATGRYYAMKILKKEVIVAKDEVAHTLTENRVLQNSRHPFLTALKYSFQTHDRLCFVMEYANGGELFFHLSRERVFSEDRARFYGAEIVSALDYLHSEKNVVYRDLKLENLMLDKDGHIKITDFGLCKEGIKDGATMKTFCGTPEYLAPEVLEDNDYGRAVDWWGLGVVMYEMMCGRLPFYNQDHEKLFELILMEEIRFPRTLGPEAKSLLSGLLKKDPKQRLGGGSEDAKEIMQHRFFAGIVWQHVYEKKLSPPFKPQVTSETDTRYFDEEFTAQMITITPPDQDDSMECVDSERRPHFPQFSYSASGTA
Method: as §1

LYN = LYN (Homo sapiens, UniProt P07948)
Chain of LYN (P07948 whole entry): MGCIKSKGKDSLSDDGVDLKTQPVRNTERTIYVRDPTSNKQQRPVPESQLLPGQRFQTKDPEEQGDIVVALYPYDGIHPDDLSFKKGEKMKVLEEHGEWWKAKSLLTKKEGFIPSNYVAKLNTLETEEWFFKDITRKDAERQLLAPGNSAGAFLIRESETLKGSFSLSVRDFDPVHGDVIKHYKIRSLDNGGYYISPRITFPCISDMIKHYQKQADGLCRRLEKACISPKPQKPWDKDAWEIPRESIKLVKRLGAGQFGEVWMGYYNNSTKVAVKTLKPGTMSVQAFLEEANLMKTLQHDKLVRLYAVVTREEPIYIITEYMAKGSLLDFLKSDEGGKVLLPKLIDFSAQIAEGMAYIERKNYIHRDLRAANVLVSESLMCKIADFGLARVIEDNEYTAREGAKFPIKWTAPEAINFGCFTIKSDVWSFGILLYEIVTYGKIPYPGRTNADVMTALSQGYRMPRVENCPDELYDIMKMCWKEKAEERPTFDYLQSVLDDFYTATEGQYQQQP
Method: as §1

Abl_phos = target: T4, Abl_phos (Homo sapiens, UniProt P00519)
T4 construct: gene ABL1; phosphorylated
T4 sequence (P00519 whole entry): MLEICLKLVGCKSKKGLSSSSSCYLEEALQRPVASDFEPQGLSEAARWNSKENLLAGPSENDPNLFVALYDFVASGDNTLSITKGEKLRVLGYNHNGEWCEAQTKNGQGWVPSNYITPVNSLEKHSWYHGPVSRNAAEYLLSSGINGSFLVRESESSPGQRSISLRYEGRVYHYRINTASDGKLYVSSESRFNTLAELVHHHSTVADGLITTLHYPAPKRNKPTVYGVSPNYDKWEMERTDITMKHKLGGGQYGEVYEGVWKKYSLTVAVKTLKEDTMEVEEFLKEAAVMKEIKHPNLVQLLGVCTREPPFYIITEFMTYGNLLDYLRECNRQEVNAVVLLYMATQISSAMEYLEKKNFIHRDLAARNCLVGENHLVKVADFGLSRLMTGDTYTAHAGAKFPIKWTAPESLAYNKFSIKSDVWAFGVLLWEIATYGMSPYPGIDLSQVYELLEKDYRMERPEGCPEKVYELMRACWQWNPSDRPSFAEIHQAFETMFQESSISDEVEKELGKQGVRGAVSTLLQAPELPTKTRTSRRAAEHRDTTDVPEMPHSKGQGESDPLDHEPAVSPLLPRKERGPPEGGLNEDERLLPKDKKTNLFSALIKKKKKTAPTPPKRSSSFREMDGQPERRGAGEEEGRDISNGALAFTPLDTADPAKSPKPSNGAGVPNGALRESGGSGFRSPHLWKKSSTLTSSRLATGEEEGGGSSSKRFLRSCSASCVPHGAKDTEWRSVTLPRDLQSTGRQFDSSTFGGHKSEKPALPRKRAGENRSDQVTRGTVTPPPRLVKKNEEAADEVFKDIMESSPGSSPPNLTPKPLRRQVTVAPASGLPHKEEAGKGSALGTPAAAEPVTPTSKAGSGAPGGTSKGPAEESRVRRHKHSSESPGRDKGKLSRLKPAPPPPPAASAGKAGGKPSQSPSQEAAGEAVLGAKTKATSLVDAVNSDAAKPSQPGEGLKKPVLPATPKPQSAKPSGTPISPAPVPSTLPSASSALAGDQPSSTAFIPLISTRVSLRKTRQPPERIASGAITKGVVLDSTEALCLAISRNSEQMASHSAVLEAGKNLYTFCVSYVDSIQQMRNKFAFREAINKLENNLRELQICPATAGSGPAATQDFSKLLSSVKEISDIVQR
Method: as §1

TBK1 = target: T5, TBK1 (Homo sapiens, UniProt Q9UHD2)
T5 sequence (Q9UHD2 1-729): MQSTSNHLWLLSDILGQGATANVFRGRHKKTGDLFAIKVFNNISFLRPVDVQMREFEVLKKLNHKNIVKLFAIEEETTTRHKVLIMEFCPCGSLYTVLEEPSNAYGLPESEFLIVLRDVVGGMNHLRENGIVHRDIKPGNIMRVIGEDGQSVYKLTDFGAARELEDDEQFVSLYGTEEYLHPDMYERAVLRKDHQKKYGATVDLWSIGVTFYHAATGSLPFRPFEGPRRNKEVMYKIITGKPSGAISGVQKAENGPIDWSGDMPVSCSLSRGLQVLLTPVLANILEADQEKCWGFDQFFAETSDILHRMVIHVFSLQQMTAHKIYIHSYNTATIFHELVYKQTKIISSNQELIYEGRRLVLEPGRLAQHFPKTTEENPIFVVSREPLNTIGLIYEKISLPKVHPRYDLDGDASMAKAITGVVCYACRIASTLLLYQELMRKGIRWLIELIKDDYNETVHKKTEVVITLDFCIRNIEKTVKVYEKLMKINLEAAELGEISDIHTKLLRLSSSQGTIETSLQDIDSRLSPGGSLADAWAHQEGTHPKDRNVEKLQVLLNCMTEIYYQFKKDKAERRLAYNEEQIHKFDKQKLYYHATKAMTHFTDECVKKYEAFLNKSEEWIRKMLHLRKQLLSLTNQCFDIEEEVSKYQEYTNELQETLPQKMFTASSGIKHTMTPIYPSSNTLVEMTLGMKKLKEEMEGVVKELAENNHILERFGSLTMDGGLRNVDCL
Method: as §1

[1] = read-out: Kinome Profiling performed by Eurofins DiscoverX / AM-1882, 1.0 µM / POC
[2] = read-out: Kinome Profiling performed by Eurofins DiscoverX / AM-0277, 1.0 µM / POC
[3] = read-out: Kinome Profiling performed by Eurofins DiscoverX / AM-5308, 1.0 µM / POC

CC(C)(C)NS(=O)(=O)c1cccc(NC(=O)c2ccc(S(=O)(=O)NC(C)(C)C)cc2N2CCC3(CC2)CC3)c1 [AM-1882]
remaining activity at 1 µM (PI3K alpha; [1]): 100% | remaining activity at 1 µM (Tyk-2; [1]): 100% | remaining activity at 1 µM (GSK3B; [1]): 100% | remaining activity at 1 µM (MAP3K1; [1]): 76.5% | remaining activity at 1 µM (PKB α; [1]): 100% | remaining activity at 1 µM (LYN; [1]): 99.5% | remaining activity at 1 µM (Abl_phos; [1]): 63.5% | remaining activity at 1 µM (TBK1; [1]): 82%

CC(C)(CO)Nc1ccc(C(=O)Nc2cccc(S(=O)(=O)C3CCCC3)c2)c(N2CCC3(CC2)CC3)n1 [AM-0277]
remaining activity at 1 µM (PI3K alpha; [2]): 100% | remaining activity at 1 µM (Tyk-2; [2]): 100% | remaining activity at 1 µM (GSK3B; [2]): 100% | remaining activity at 1 µM (MAP3K1; [2]): 100% | remaining activity at 1 µM (PKB α; [2]): 94% | remaining activity at 1 µM (LYN; [2]): 100% | remaining activity at 1 µM (Abl_phos; [2]): 46% | remaining activity at 1 µM (TBK1; [2]): 87%

C[C@@H]1CN(c2cccc(NC(=O)c3ccc(NS(=O)(=O)CCO)cc3N3CCC4(CC3)CC4)n2)CCO1 [AM-5308]
remaining activity at 1 µM (PI3K alpha; [3]): 91.5% | remaining activity at 1 µM (Tyk-2; [3]): 84% | remaining activity at 1 µM (GSK3B; [3]): 100% | remaining activity at 1 µM (MAP3K1; [3]): 100% | remaining activity at 1 µM (PKB α; [3]): 100% | remaining activity at 1 µM (LYN; [3]): 86.5% | remaining activity at 1 µM (Abl_phos; [3]): 98.5% | remaining activity at 1 µM (TBK1; [3]): 100%
